In PMC5888870 (2018):

What was measured:
[1] = test system: shortened KRAS oligonucleotide (DNA, G4) AGGGCGGTGTGGGAATAGGGAA; assay: WaterLOGSY NMR; conditions: 50 mM KCl, 25 mM Tris-d11 pH 6.6, 10% DMSO-d6, 293 K, 100 μM compound, 1 μM DNA
[2] = test system: 5'-biotin-TEG KRAS (DNA, G4) AGGGCGGTGTGGGAAGAGGGAAGAGGGGGAGGCAG; assay: SPR; conditions: 30 mM KCl; 10 mM Tris pH 6.6, 3% DMSO, 0.01% Tween-20; no binding at 20 μM
[3] = test system: Alexafluor647-KRAS (DNA, G4) AGGGCGGTGTGGGAAGAGGGAAGAGGGGGAGGCAG; assay: fluorescence intensity titration; conditions: 50 mM KCl, 25 mM Tris pH 6.4, 2-3% DMSO, room temperature; for KDapp: apparent
[4] = test system: shortened KRAS oligonucleotide (DNA, G4) AGGGCGGTGTGGGAATAGGGAA; assay: 1H NMR titration; conditions: 50 mM KCl, 100 μM DNA
[5] = test system: KRAS G4 (DNA, G4) AGGGCGGTGTGGGAAGAGGGAAGAGGGGGAGGCAG; assay: CD thermal melt; conditions: 30 mM KCl; 10 mM Tris pH 6.6, 1% DMSO; 10 μM DNA, 40 μM compound
[6] = test system: 5'-biotin-TEG KRAS (DNA, G4) AGGGCGGTGTGGGAAGAGGGAAGAGGGGGAGGCAG; assay: SPR, Langmuir kinetic fit; conditions: 30 mM KCl; 10 mM Tris pH 6.6, 3% DMSO, 0.01% Tween-20
[7] = test system: KRAS G4 (DNA, G4) AGGGCGGTGTGGGAAGAGGGAAGAGGGGGAGGCAG; assay: 13C NMR; conditions: 50 mM KCl; 25 mM Tris-d11 pH 6.6, 10% DMSO-d6, 293 K
[8] = test system: dsDNA (DNA, duplex) CAATCGGATCGAATTCGATCCGATTG; assay: CD thermal melt; conditions: 30 mM KCl; 10 mM Tris pH 6.6, 1% DMSO; 10 μM DNA, 40 μM compound
[9] = test system: 5'-biotin-TEG KRAS (DNA, G4) AGGGCGGTGTGGGAAGAGGGAAGAGGGGGAGGCAG; assay: SPR, steady state; conditions: 30 mM KCl; 10 mM Tris pH 6.6, 3% DMSO, 0.01% Tween-20; apparent; text b35 prints 12.0 ± 0.5
[10] = test system: Alexafluor647-AKTIP (RNA, G4) GGGGUGGGGCGGGGCGGGG; assay: small molecule microarray; conditions: 100 mM KCl; PBST, room temperature, 500 nM RNA; immobilised compound
[11] = test system: Alexafluor647-c-KIT (DNA, G4) AGGGAGGGCGCTGGGAGGAGGG; assay: small molecule microarray; conditions: 100 mM KCl; PBST, room temperature, 500 nM DNA; immobilised compound
[12] = test system: Alexafluor647-VEGF (DNA, G4) CGGGGCGGGCCGGGGGCGGGGT; assay: small molecule microarray; conditions: 100 mM KCl; PBST, room temperature, 500 nM DNA; immobilised compound
[13] = test system: Alexafluor647-BCl2 (DNA, G4) AGGGGCGGGCGCGGGAGGAAGGGGGCGGGA; assay: small molecule microarray; conditions: 100 mM KCl; PBST, room temperature, 500 nM DNA; immobilised compound
[14] = test system: Alexafluor647-MYB (DNA, G4) GGAGGAGGAGGTCACGGAGGAGGAGGAGAAGGAGGAGGAGGA; assay: small molecule microarray; conditions: 100 mM KCl; PBST, room temperature, 500 nM DNA; immobilised compound
[15] = test system: Alexafluor647-MYC (DNA, G4) AGGGTGGGGAGGGTGGGG; assay: small molecule microarray; conditions: 100 mM KCl; PBST, room temperature, 500 nM DNA; immobilised compound
[16] = test system: Alexafluor647-KRAS (DNA, G4) AGGGCGGTGTGGGAAGAGGGAAGAGGGGGAGGCAG; assay: small molecule microarray; conditions: 100 mM KCl; PBST, room temperature, 500 nM DNA; immobilised compound
[17] = test system: Alexafluor647-RB1 (DNA, G4) CGGGGGGTTTTGGGCGGC; assay: small molecule microarray; conditions: 100 mM KCl; PBST, room temperature, 500 nM DNA; immobilised compound

## CN[C@H](C(=O)O)C(C)C
[1]; internal control
  binding: no

## CC(C)NC(=N)NC(=N)Nc1ccc(Cl)cc1
[2]
  KD: > 20 µM
[3]; only minimal fluorescence changes
  KDapp: > 200 µM
[4]; 25 mM Tris-d11 pH 6.6, 10% DMSO-d6, 293 K, weak, nonspecific
  binding: weak
[5]
  ΔTm: < 1 °C

## N=C(NCCCCCCNC(=N)NC(=N)Nc1ccc(Cl)cc1)NC(=N)Nc1ccc(Cl)cc1
[3]; 50 nM DNA
  KD: 0.0055 ± 0.0029 mM
[6]
  KD: 1.1 ± 0.5 µM
[4]; 25 mM Tris-d11 pH 6.6, 10% D2O, 5% DMSO-d6, 293 K
  binding: yes
[5]
  ΔTm: 13.0 ± 0.7 °C
[7]
  binding: yes
[8]
  binding: no
[1]
  binding: yes

## CCCCC(CC)CNC(=N)NC(=N)NCCCCCCNC(=N)NC(=N)NCC(CC)CCCC (stereo not shown)
[3]; 50 nM DNA
  KDapp: 19.3 ± 11.0 µM
[4]; 25 mM Tris-d11 pH 6.6, 10% DMSO-d6, 293 K, moderate, nonspecific
  binding: yes
[5]
  ΔTm: 7.1 ± 0.6 °C
[9]
  KDapp: 12.1 ± 0.5 µM

## NCCOc1cc(C(=O)Nc2cc(OCCN)c3ccccc3n2)nc(C(=O)Nc2cc(OCCN)c3ccccc3n2)c1
[10]
  binding: yes
[11]
  binding: yes
[12]
  binding: yes
[13]
  binding: yes
[14]
  binding: yes
[5]
  ΔTm: 31.6 ± 2.6 °C
[15]
  binding: yes
[16]
  binding: yes
[17]
  binding: yes
